These results are taken from US10793557B2, “Sting agonist compounds” (Merck Sharp & Dohme Corp., priority 2018, dated 2020).

The target of one assay is T1, full-length HAQ STING (Homo sapiens, UniProt Q86WV6, G230A/H232R/R293Q/R71H).
T1 construct: AviTag (after GG linker) (C); HRV3C cleavage site (after GS linker) (C); HIS8 (C); made in house; host or cells: Trichoplusia ni (Hi-Five) insect cells infected with baculovirus (virus generated and amplified in Sf21 cells); used as a washed membrane preparation
T1 sequence (Q86WV6 with tags, fused parts or gaps R71H/G230A/H232R/R293Q): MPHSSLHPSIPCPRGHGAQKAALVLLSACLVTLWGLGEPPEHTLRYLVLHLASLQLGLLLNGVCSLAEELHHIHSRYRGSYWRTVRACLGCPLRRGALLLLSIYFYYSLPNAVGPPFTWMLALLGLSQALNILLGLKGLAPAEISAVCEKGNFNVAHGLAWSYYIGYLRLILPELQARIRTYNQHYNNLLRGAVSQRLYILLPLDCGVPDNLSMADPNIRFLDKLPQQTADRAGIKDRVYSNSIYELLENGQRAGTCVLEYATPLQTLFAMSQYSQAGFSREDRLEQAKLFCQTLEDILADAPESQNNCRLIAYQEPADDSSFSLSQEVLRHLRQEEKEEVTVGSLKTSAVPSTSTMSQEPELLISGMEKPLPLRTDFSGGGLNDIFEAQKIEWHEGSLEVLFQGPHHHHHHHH
Put plainly: 3H-cGAMP filtration binding assay (HAQ STING). Conditions: competition with tritiated cGAMP, HAQ STING membrane. An outline of the steps:
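Hi-Five (T. ni) membranes overexpressing the STING variant (2.2 ug/ml working) preincubated with compound 60 min at RT in PBS, then [3H]cGAMP (8 nM working stock) added for 60 min at RT. Bound radioactivity captured on GF/B filters and counted by scintillation; EC50 from 4-parameter fit of control-normalized activity.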

The target in the next assay is T2, full-length WT STING (Homo sapiens, UniProt Q86WV6, H232R).
T2 construct: AviTag (after gg linker) (C); HRV3C cleavage site (after gs linker) (C); HIS8 (C); made in house; host or cells: Trichoplusia ni (Hi-Five) insect cells infected with baculovirus (virus generated and amplified in Sf21 cells); used as a washed membrane preparation
T2 sequence (Q86WV6 with tags, fused parts or gaps H232R): as the sequence (Q86WV6 with tags, fused parts or gaps R71H/G230A/H232R/R293Q) above, with H71R, A230G, Q293R counted along it
Nature of the assay: 3H-cGAMP filtration binding assay (WT STING). Conditions: for EC50: competition with tritiated cGAMP, WT STING membrane. An outline of the steps: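 EC50 values come from 4-parameter fits of remaining filter-bound tritium versus log concentration (10-point, 1:3 dilution). Insect-cell membranes carrying full-length WT STING were incubated 60 min at RT with compound and tritiated cGAMP (16 nM working stock) before filtration.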

For assay [1], the system named is secretion of interferon-beta from THP1 cells. Put plainly: IFN-β secretion in THP1 cell culture (5 h). It is filed as cell-based. The note with it: Homo sapiens, THP-1, 5 h, 30 uM cGAMP = 100%; for activation at 30 µM: compound at 30 μM, read-out: % Effect at 30 μM relative to 2′3′-cGAMP; for activation at 3 µM: compound at 3 uM, read-out: % Effect relative to 2′3′-cGAMP (@ 3 uM). An outline of the steps:
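IFN-β in supernatant measured by AlphaLISA after a 5 h, 37 °C incubation of THP1 cells with compound (10 concentrations, 30000 down to 1.5 nM, 0.3% DMSO) in low-serum RPMI. Values scaled between DMSO and 30 uM cGAMP controls; 4-parameter curve fit yields EC50.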

SMILES strings stand for the structures.

The compound `COc1cc2sc(C(=O)C[C@H](C)C(=O)O)cc2c(F)c1OCCCCCOc1c(OC)cc2sc(C(=O)[C@@H]3CC[C@H]3C(=O)O)cc2c1F` [Example 121, trans-2-(5-((5-((2-((S)-3-carboxybutanoyl)-4-fluoro-6-methoxybenzo[b]thiophen-5-yl)oxy)pentyl)oxy)-4-fluoro-6-methoxybenzo[b]thiophene-2-carbonyl)cyclobutane carboxylic acid] displayed an EC50 at full-length HAQ STING of 1550 nM. Moreover, the inhibition at 20 µM at full-length WT STING (at 20,000 nM compound) was determined as 43%. Moreover, the activation at 30 µM in assay [1] came to 26%.
On to `COc1cc2sc(C(=O)C[C@H](C)C(=O)O)cc2c(F)c1OCCCOc1c(OC)cc2sc(C(=O)C[C@H](C)C(=O)O)cc2c1Cl` [Example 122, (S)-4-(5-(3-((2-((S)-3-carboxybutanoyl)-4-chloro-6-methoxybenzo[b]thiophen-5-yl)oxy)propoxy)-4-fluoro-6-methoxybenzo[b]thiophen-2-yl)-2-methyl-4-oxobutanoic acid], for which the EC50 on full-length HAQ STING and at full-length WT STING was 1 nM throughout. For the same compound, the activation at 30 µM in assay [1] stood at 79%.
As for `COc1cc2sc(C(=O)C[C@H](C)C(=O)O)cc2c(F)c1OCCCOc1c(OC)cc2sc(C(=O)C[C@H](C)C(=O)O)cc2c1Br` [Example 123, (S)-4-(5-(3-((4-bromo-2-((S)-3-carboxybutanoyl)-6-methoxybenzo[b]thiophen-5-yl)oxy)propoxy)-4-fluoro-6-methoxybenzo[b]thiophen-2-yl)-2-methyl-4-oxobutanoic acid], the half-maximal effective concentration (EC50) on full-length HAQ STING turned out to be 1 nM; at full-length WT STING it was 2 nM. The activation at 30 µM in assay [1] was 105%.
With `COc1cc2sc(CC[C@H](C)C(=O)O)cc2c(F)c1OCCCCOc1c(OC)cc2sc(C(=O)C[C@H](C)C(=O)O)cc2c1F` [Example 124, (S)-4-(5-(4-((2-((S)-3-carboxybutyl)-4-fluoro-6-methoxybenzo[b]thiophen-5-yl)oxy)butoxy)-4-fluoro-6-methoxybenzo[b]thiophen-2-yl)-2-methyl-4-oxobutanoic acid], the 50% effective concentration (EC50) on full-length HAQ STING was 263 nM; at full-length WT STING it was 3060 nM. Besides, the activation at 3 µM in assay [1] was 45%.
In the case of `COc1cc2cc(C(=O)CCC(=O)O)sc2cc1OCCCOc1c(OC)cc2sc(C(=O)CCC(=O)O)cc2c1F` [Example 125, 4-(6-(3-((2-(3-carboxypropanoyl)-4-fluoro-6-methoxybenzo[b]thiophen-5-yl)oxy)propoxy)-5-methoxybenzo[b]thiophen-2-yl)-4-oxobutanoic acid], the results for the concentration giving a half-maximal response (EC50) at full-length HAQ STING and at full-length WT STING were 1 nM and 5 nM, respectively. Also, the activation at 30 µM in assay [1] came to 156%.
In the same order, the values of `COc1cc2sc(C(=O)CCC(=O)O)cc2cc1OCCCOc1cc2sc(C(=O)CCC(=O)O)cc2cc1OC` [Example 126, 4-(5-(3-((2-(3-carboxypropanoyl)-5-methoxybenzo[b]thiophen-6-yl)oxy)propoxy)-6-methoxybenzo[b]thiophen-2-yl)-4-oxobutanoic acid] are 2 nM, 19 nM and 91%.
On to `COc1cc2cc(C(=O)CCC(=O)O)sc2cc1OCCCOc1cc2sc(C(=O)CCC(=O)O)cc2cc1OC` [Example 127, 4,4′-(6,6′-(propane-1,3-diylbis(oxy))bis(5-methoxybenzo[b]thiophene-6,2-diyl))bis(4-oxobutanoic acid)], for which the half-maximal effective concentration (EC50) was determined as 16 nM on full-length HAQ STING and 270 nM on full-length WT STING. In assay [1], the activation at 30 µM worked out at 120%.
In the same order, the values of `COc1cc2sc(C(=O)CCC(=O)O)cc2cc1CCCOc1cc2sc(C(=O)CCC(=O)O)cc2cc1OC` [Example 128, 4-(5-(3-((2-(3-carboxypropanoyl)-5-methoxybenzo[b]thiophen-6-yl)oxy)propyl)-6-methoxybenzo[b]thiophen-2-yl)-4-oxobutanoic acid] are 1080 nM, 6310 nM and 83%.
In the case of `COc1cc2cc(C(=O)CCC(=O)O)sc2cc1OCCCc1cc2cc(C(=O)CCC(=O)O)sc2cc1C` [Example 129, 4-(5-(3-((2-(3-carboxypropanoyl)-5-methoxybenzo[b]thiophen-6-yl)oxy)propyl)-6-methylbenzo[b]thiophen-2-yl)-4-oxobutanoic acid], the EC50 at full-length HAQ STING came out at 3500 nM; on full-length WT STING, 17100 nM. For the same compound, the activation at 30 µM in assay [1] worked out at 50%.
The corresponding values for `COc1cc2sc(C(=O)C[C@H](C)C(=O)O)cc2c(F)c1OCCCCOc1c(OC)cc2sc(C(=O)C[C@H](C)C(=O)O)cc2c1Cl` [Example 130, (S)-4-(5-(4-((2-((S)-3-carboxybutanoyl)-4-chloro-6-methoxybenzo[b]thiophen-5-yl)oxy)butoxy)-4-fluoro-6-methoxybenzo[b]thiophen-2-yl)-2-methyl-4-oxobutanoic acid] are 3 nM, 25 nM and 61%.
Turning to `COc1cc2sc(C(=O)C[C@H](C)C(=O)O)cc2c(F)c1OCCCCOc1c(OC)cc2sc(C(=O)C[C@H](C)C(=O)O)cc2c1Br` [Example 131, (S)-4-(5-(4-((4-bromo-2-((S)-3-carboxybutanoyl)-6-methoxybenzo[b]thiophen-5-yl)oxy)butoxy)-4-fluoro-6-methoxybenzo[b]thiophen-2-yl)-2-methyl-4-oxobutanoic acid], the EC50 at full-length HAQ STING is 25 nM; at full-length WT STING it was 242 nM. For the same compound, in assay [1], the activation at 3 µM was found to be 38%.
As for `COc1cc2sc(C(=O)C[C@H](C)C(=O)O)cc2c(Cl)c1OCCCOc1c(OC)cc2sc(C(=O)C[C@H](C)C(=O)O)cc2c1Cl` [Example 132, (2S,2′S)-4,4′-(5,5′-(propane-1,3-diylbis(oxy))bis(4-chloro-6-methoxybenzo[b]thiophene-5,2-diyl))bis(2-methyl-4-oxobutanoic acid)], the 50% effective concentration (EC50) at full-length HAQ STING is 3 nM; at full-length WT STING, 10 nM. Further, the activation at 30 µM in assay [1] came out at 131%.
The corresponding values for `COc1cc2sc(C(=O)C[C@H](C)C(=O)O)cc2c(Cl)c1OCCCOc1c(OC)cc2sc(C(=O)C[C@H](C)C(=O)O)cc2c1Br` [Example 133, (S)-4-(5-(3-((4-bromo-2-((S)-3-carboxybutanoyl)-6-methoxybenzo[b]thiophen-5-yl)oxy)propoxy)-4-chloro-6-methoxybenzo[b]thiophen-2-yl)-2-methyl-4-oxobutanoic acid] are 15 nM, 147 nM and 80%.
The corresponding values for `COc1cc2sc(C(=O)C[C@H](C)C(=O)O)cc2c(Br)c1OCCCOc1c(OC)cc2sc(C(=O)C[C@H](C)C(=O)O)cc2c1Br` [Example 134, (2S,2′S)-4,4′-(5,5′-(propane-1,3-diylbis(oxy))bis(4-bromo-6-methoxybenzo[b]thiophene-5,2-diyl))bis(2-methyl-4-oxobutanoic acid)] are 22 nM, 233 nM and 89%.
As to `COc1cc2sc(C[C@@H]3CC[C@H]3C(=O)O)cc2c(F)c1OCCCOc1c(OC)cc2sc(C(=O)C[C@H](C)C(=O)O)cc2c1F` [Example 135, 2-((5-(3-((2-((S)-3-carboxybutanoyl)-4-fluoro-6-methoxybenzo[b]thiophen-5-yl)oxy)propoxy)-4-fluoro-6-methoxybenzo[b]thiophen-2-yl)methyl)cyclo-butanecarboxylic acid], the EC50 at full-length HAQ STING is 1 nM; at full-length WT STING, 5 nM. Also, the activation at 30 µM in assay [1] was found to be 100%.
